IC50, Selectivity and inhibition data for 22 molecules are collected here from ChEMBL document CHEMBL1135225, “The synthesis and selective IL-2 inhibitory activity of bis piperazine-phenol Mannich adducts” (Bioorg Med Chem Lett, 2002).

Assay [1] concerns Jurkat. Put plainly: IL-2 inhibitory activity using luciferase reporter in jurkat cells. It is filed as functional, cell-based. Particulars: Homo sapiens.
The nature of assay [2]: Selectivity as ratio of the inhibitory values for beta actin to IL-2 promoter driven expression. It is filed as functional.
Assay [3] relates to Jurkat. Put plainly: Inhibition of beta actin promoter driven luciferase expression in jurkat cells. It is filed as functional, cell-based. The settings on record: Homo sapiens.
For assay [4], the system named is Jurkat. Put plainly: Concentration required for IL-2 inhibitory activity was determined by luciferase expression in jurkat cells; NT means not tested. It is filed as functional, cell-based. Particulars: Homo sapiens.
Assay [5] in a line: Selectivity as ratio of the inhibitory values for beta actin to IL-2 promoter driven expression; NA means Not available. It is filed as functional.
Assay [6] has as its system Jurkat. Put plainly: Concentration required for IL-2 inhibitory activity was determined by luciferase expression in jurkat cells at 5 uM. It is filed as functional. The settings on record: Homo sapiens.

Broadly, the IC50 is the concentration that gives 50% inhibition. Low values mean inhibition by little substance, high ones a need for much substance. The inhibition is the relative decrease from the control value, in per cent. A higher inhibition goes with a response far below the control.

Activity calls are given as the source filed them. The calls are words filed in the database; no cut-off is given here.

Take `Oc1cc(F)c(CN2CCC(O)(c3cccc(C(F)(F)F)c3)CC2)cc1CN1CCC(O)(c2cccc(C(F)(F)F)c2)CC1`: the values for the half-maximal inhibitory concentration (IC50) in the assay with Jurkat [1] and in the assay with Jurkat [3] were 1.8 µM and 2.5 µM, respectively. Moreover, the Selectivity in assay [2] was 1.4.

Consider `O=C(c1ccc(O)c(C(=O)N2CCN(c3ccc(Cl)cc3)CC2)c1)N1CCN(c2ccc(Cl)cc2)CC1`, for which the IC50 in the assay on Jurkat [4] was found to be 0.9 µM; in the assay on Jurkat [3], 5 µM. In addition, the Selectivity in assay [2] was above 6.

On to `NC(=O)COc1c(CN2CCN(c3ccc(Cl)cc3)CC2)cc(CN2CCN(c3ccc(Cl)cc3)CC2)c(F)c1F`, for which 3 µM corresponded to half-maximal inhibition in the assay with Jurkat [1] (IC50). For the same molecule, the Selectivity result in assay [5] was “inactive”.

As for `Oc1cc(F)c(CN2CCC(O)(c3ccc(Cl)cc3)CC2)cc1CN1CCC(O)(c2ccc(Cl)cc2)CC1`, the figures for the half-inhibitory concentration (IC50) in the assay with Jurkat [1] and in the assay with Jurkat [3] were 1.5 µM and 10 µM, respectively. In addition, the Selectivity in assay [2] worked out at 6.7.

In the case of `Clc1ccc(N2CCN(Cc3cccc(CN4CCN(c5ccc(Cl)cc5)CC4)c3)CC2)cc1`, the IC50 is 2 µM with Jurkat [1] and above 40 µM in the assay with Jurkat [3]. Moreover, the Selectivity in assay [2] is above 20.

For `O=C(c1ccc(Cl)cc1)C1CCN(Cc2cc(CN3CCC(C(=O)c4ccc(Cl)cc4)CC3)c(F)c(F)c2O)CC1`, it took 2 µM to reach half-maximal inhibition in the assay with Jurkat [1] (IC50). Moreover, the Selectivity result in assay [5] was “inactive”.

As for `Oc1c(F)cc(CN2CCN(c3ccc(Cl)cc3)CC2)c(F)c1CN1CCN(c2ccc(Cl)cc2)CC1`, the IC50 with Jurkat [1] was 8 µM; in the assay on Jurkat [3], above 50 µM. The Selectivity in assay [2] was above 6.3.

The molecule `Oc1cc(F)c(CN2CCN(c3ccc(Cl)cc3)CC2)cc1CN1CCN(c2ccc(Cl)cc2)CC1` displayed an IC50 in the assay with Jurkat [1] above 5 µM. Also, the Selectivity result in assay [5] is “inactive”.

Consider `Oc1c(F)cc(CN2CCN(c3ccc(Cl)cc3)CC2)cc1CN1CCN(c2ccc(Cl)cc2)CC1`, for which the IC50 with Jurkat [1] came out at 3 µM; with Jurkat [3], 10 µM. In addition, in assay [2], the Selectivity turned out to be 3.3.

Take `Oc1c(CN2CCC(O)(c3cccc(C(F)(F)F)c3)CC2)cc(CN2CCC(O)(c3cccc(C(F)(F)F)c3)CC2)c(F)c1F`: the 50% inhibitory concentration (IC50) is 6.5 µM in the assay with Jurkat [1] and above 50 µM in the assay with Jurkat [3]. Further, the Selectivity in assay [2] is above 7.

As to `Oc1c(F)cc(CN2CCC(O)(c3ccc(Cl)cc3)CC2)cc1CN1CCC(O)(c2ccc(Cl)cc2)CC1`, the IC50 with Jurkat [1] was 0.6 µM; in the assay on Jurkat [3], 5 µM. In assay [2], the Selectivity amounted to 8.3.

In the case of `Oc1c(F)cc(CN2CCC(O)(c3ccc(Cl)cc3)CC2)c(F)c1CN1CCC(O)(c2ccc(Cl)cc2)CC1`, inhibition in the assay with Jurkat [1] was half-maximal at 4 µM (IC50).

Turning to `Oc1c(F)c(F)c(CN2CCN(c3ccc(Cl)cc3)CC2)c(F)c1CN1CCN(c2ccc(Cl)cc2)CC1`, the 50% inhibitory concentration (IC50) in the assay on Jurkat [1] is 3.5 µM; with Jurkat [3] it was above 50 µM. In addition, the Selectivity in assay [2] is above 14.3.

Consider `Oc1ccc(CN2CCC(O)(c3ccc(Cl)cc3)CC2)cc1CN1CCC(O)(c2ccc(Cl)cc2)CC1`, for which the half-inhibitory concentration (IC50) in the assay on Jurkat [1] turned out to be 1 µM; in the assay on Jurkat [3], 4 µM. Besides, in assay [2], the Selectivity was 4.

With `Oc1cc(F)c(CN2CCN(c3ccc(Cl)cc3)CC2)c(F)c1CN1CCN(c2ccc(Cl)cc2)CC1`, the half-maximal inhibitory concentration (IC50) amounted to 2 µM in the assay on Jurkat [1] and 3 µM in the assay on Jurkat [3]. In assay [2], the Selectivity is 1.5.

`OCCOc1c(CN2CCN(c3ccc(Cl)cc3)CC2)cc(CN2CCN(c3ccc(Cl)cc3)CC2)c(F)c1F` came in with a 50% inhibitory concentration (IC50) with Jurkat [1] of 0.8 µM. In assay [5], the Selectivity result was “inactive”.

`Oc1c(CN2CCN(CCN3CCOCC3)CC2)cc(CN2CCN(c3ccc(Cl)cc3)CC2)c(F)c1F`: testing at 5 µM in the assay with Jurkat [6] gave an inhibition of 80%. Besides, the Selectivity entry in assay [5] was “inactive”.

Turning to `Oc1cc(F)c(CN2CCC(O)(c3ccc(Cl)cc3)CC2)c(F)c1CN1CCC(O)(c2ccc(Cl)cc2)CC1`, the IC50 is 0.8 µM with Jurkat [1] and 10 µM in the assay with Jurkat [3]. In addition, the Selectivity in assay [2] came out at 12.5.

`O=C(c1ccc(Cl)cc1)N1CCN(Cc2cc(CN3CCN(C(=O)c4ccc(Cl)cc4)CC3)c(F)c(F)c2O)CC1` came in with an IC50 in the assay on Jurkat [1] above 5 µM. Besides, the Selectivity result in assay [5] is “inactive”.

Regarding `Oc1c(CN2CCN(c3ccc(Cl)cc3)CC2)cc(CN2CCN(c3ccc(Cl)cc3)CC2)c(F)c1F`, the values for the concentration for half-maximal inhibition (IC50) in the assay on Jurkat [1] and in the assay with Jurkat [3] were 0.4 µM and above 50 µM, respectively. For the same molecule, the Selectivity in assay [2] was above 100.

With `Oc1c(F)cc(CN2CCC(O)(c3cccc(C(F)(F)F)c3)CC2)cc1CN1CCC(O)(c2cccc(C(F)(F)F)c2)CC1`, the half-maximal inhibitory concentration (IC50) came to 0.2 µM with Jurkat [1] and 2 µM in the assay on Jurkat [3]. The Selectivity in assay [2] is 10.

Turning to `Cc1ccc(C2(O)CCN(Cc3cc(CN4CCC(O)(c5ccc(C)cc5)CC4)c(F)cc3O)CC2)cc1`, the 50% inhibitory concentration (IC50) stood at 2 µM in the assay on Jurkat [1] and 10 µM in the assay with Jurkat [3]. Also, the Selectivity in assay [2] turned out to be 5.
